This is an account of results in ChEMBL document CHEMBL1909046, “DrugMatrix in vitro pharmacology data”.

Sequence of Sodium-dependent dopamine transporter (Q01959 whole entry): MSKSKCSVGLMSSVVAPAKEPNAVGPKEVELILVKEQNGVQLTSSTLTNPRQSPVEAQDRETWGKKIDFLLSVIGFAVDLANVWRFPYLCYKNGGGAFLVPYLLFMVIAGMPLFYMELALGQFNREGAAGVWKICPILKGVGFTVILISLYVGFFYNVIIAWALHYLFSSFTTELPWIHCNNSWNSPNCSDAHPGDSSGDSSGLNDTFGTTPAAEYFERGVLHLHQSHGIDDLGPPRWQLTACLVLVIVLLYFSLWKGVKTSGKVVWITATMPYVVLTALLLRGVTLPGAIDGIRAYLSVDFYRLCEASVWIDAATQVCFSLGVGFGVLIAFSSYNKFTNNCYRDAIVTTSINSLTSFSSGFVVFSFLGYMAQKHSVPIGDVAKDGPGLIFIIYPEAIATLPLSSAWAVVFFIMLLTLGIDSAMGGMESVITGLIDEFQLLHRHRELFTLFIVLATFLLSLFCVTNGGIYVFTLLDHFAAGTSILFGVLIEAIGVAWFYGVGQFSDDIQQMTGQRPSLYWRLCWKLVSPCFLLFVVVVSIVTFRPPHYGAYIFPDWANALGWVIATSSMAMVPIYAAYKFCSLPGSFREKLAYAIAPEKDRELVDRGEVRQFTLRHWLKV
Sequence of Insulin receptor (P15127 27-759 limits assumed): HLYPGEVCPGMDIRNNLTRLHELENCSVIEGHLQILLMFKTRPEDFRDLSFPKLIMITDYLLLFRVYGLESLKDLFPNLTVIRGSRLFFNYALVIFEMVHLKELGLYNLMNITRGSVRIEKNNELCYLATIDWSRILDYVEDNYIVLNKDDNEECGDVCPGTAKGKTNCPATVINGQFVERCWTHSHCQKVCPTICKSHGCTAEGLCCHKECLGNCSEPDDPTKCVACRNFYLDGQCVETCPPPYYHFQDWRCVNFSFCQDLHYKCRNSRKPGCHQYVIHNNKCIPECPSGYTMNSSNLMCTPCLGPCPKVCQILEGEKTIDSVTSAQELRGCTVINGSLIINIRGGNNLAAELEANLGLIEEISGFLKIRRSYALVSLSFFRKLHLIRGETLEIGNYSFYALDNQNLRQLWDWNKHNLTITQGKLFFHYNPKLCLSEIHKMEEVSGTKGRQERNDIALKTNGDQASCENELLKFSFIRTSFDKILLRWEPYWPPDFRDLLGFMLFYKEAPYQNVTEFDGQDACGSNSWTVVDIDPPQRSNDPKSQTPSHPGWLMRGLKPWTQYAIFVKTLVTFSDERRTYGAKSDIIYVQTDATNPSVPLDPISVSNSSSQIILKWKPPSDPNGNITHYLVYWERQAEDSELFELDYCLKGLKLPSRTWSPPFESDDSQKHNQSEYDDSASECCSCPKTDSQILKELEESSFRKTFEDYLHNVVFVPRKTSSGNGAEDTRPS
Sequence of Insulin receptor (P15127 764-1383 limits assumed): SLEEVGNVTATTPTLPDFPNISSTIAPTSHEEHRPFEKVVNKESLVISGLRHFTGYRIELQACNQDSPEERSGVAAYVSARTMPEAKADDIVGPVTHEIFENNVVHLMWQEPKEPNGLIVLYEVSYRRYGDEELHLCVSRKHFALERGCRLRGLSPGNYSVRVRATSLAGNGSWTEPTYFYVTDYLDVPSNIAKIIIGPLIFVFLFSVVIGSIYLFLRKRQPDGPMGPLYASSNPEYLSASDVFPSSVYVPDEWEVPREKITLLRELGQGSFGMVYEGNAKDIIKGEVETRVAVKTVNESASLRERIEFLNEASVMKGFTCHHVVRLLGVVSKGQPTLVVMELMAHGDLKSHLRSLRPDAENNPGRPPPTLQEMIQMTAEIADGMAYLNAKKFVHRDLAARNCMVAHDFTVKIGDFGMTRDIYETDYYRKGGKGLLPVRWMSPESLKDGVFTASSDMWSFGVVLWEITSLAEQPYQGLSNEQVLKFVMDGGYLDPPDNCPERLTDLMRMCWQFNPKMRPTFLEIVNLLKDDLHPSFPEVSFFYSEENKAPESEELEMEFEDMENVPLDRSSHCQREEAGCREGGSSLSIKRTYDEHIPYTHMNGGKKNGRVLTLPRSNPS

System in one test: not listed separately
Nature of the test: DRUGMATRIX: Sigma2 radioligand binding (ligand: [3H] Ifenprodil). Type of test: cell membranes, Rattus norvegicus, Wistar, Brain, Membrane. Conditions: Not Active = under 50% inhibition at 10 µM.
On to `NC(CO)(CO)CO` [TROMETHAMINE], for which the IC50 entry is recorded as “Not Active” and the Ki entry was “Not Active”.
For the molecule `O=[N+]([O-])c1cc([As](=O)(O)O)ccc1O` [ROXARSONE], the IC50 entry was “Not Active” and the Ki entry was “Not Active”.
As to `Cc1ncc([N+](=O)[O-])n1CC(C)O` (stereo unspecified) [SECNIDAZOLE], the IC50 result is “Not Active” and the Ki entry is recorded as “Not Active”.

A further test has as its target Sodium-dependent dopamine transporter (Homo sapiens, UniProt Q01959). Nature of the test: DRUGMATRIX: Dopamine Transporter radioligand binding (ligand: [125I] RTI-55). The following applies: cho-k1; Not Active = under 50% inhibition at 10 µM. Type of test: cell membranes, CHO-K1, Membrane.
With `NC(CO)(CO)CO` [TROMETHAMINE], the IC50 entry is “Not Active”.
Take `O=[N+]([O-])c1cc([As](=O)(O)O)ccc1O` [ROXARSONE]: the IC50 entry was “Not Active” and the Ki entry is listed as “Not Active”.
For the molecule `Cc1ncc([N+](=O)[O-])n1CC(C)O` (stereo unspecified) [SECNIDAZOLE], the IC50 entry is “Not Active”.

System in the next test: not listed separately
Nature of the test: DRUGMATRIX: GABAA, Flunitrazepam, Central radioligand binding (ligand: [3H] Flunitrazepam). Type of test: cell membranes, Rattus norvegicus, Wistar, Brain, Membrane. Conditions: Not Active = under 50% inhibition at 10 µM.
In the case of `NC(CO)(CO)CO` [TROMETHAMINE], the IC50 entry was “Not Active” and the Ki entry is on record as “Not Active”.
For `O=[N+]([O-])c1cc([As](=O)(O)O)ccc1O` [ROXARSONE], the IC50 entry is reported as “Not Active” and the Ki result was “Not Active”.
On to `Cc1ncc([N+](=O)[O-])n1CC(C)O` (stereo unspecified) [SECNIDAZOLE], for which the IC50 result was “Not Active” and the Ki result is given as “Not Active”.

The next test deals with Histamine H2 receptor (Homo sapiens, UniProt P25021).
Sequence of Histamine H2 receptor (P25021 whole entry): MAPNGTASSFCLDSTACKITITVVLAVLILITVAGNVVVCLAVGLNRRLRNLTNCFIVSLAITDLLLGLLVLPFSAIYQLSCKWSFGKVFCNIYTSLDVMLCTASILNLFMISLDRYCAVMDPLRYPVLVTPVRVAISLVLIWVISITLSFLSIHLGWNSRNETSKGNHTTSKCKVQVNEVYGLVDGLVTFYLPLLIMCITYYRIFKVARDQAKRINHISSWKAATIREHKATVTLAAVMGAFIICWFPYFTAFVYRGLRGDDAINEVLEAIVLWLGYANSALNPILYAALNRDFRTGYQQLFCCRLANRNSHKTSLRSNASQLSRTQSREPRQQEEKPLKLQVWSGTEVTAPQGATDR
Assay: not given
Type of test: cell membranes, CHO-K1, Membrane. The following applies: cho-k1.
On to `NC(CO)(CO)CO` [TROMETHAMINE], for which the IC50 result is recorded as “Not Active”.
With `O=[N+]([O-])c1cc([As](=O)(O)O)ccc1O` [ROXARSONE], the IC50 result is given as “Not Active” and the Ki entry is given as “Not Active”.
With `Cc1ncc([N+](=O)[O-])n1CC(C)O` (stereo unspecified) [SECNIDAZOLE], the IC50 entry was “Not Active”.

Another test addresses Insulin receptor (Rattus norvegicus, UniProt P15127).
Assay: not given
The class given is cell membranes, Wistar, Liver, Membrane.
Conditions: not given
Turning to `NC(CO)(CO)CO` [TROMETHAMINE], the IC50 entry was “Not Active”.
Consider `O=[N+]([O-])c1cc([As](=O)(O)O)ccc1O` [ROXARSONE], for which the IC50 entry is on record as “Not Active” and the Ki entry is “Not Active”.
Regarding `Cc1ncc([N+](=O)[O-])n1CC(C)O` (stereo unspecified) [SECNIDAZOLE], the IC50 result is given as “Not Active”.

System in a further test: not listed separately
Nature of the test: DRUGMATRIX: Leukotriene, BLT (LTB4) radioligand binding (ligand: [3H]LTB4). The class given is cell membranes, Membrane. Conditions: u-937; Not Active = under 50% inhibition at 10 µM.
Regarding `NC(CO)(CO)CO` [TROMETHAMINE], the IC50 entry was “Not Active” and the Ki entry is reported as “Not Active”.
Take `O=[N+]([O-])c1cc([As](=O)(O)O)ccc1O` [ROXARSONE]: the IC50 entry is listed as “Not Active” and the Ki result was “Not Active”.
Regarding `Cc1ncc([N+](=O)[O-])n1CC(C)O` (stereo unspecified) [SECNIDAZOLE], the IC50 result was “Not Active” and the Ki entry is given as “Not Active”.

The next test concerns the target Melanocortin receptor 3 (Homo sapiens, UniProt P41968). Also: in other assays of this panel Not Active means under 50% inhibition at 10 µM.
Assay: not given
Conditions: hek293. Type of test: cell membranes, Membrane.
As for `NC(CO)(CO)CO` [TROMETHAMINE], the IC50 result is reported as “Not Active”.
With `O=[N+]([O-])c1cc([As](=O)(O)O)ccc1O` [ROXARSONE], the IC50 entry was “Not Active” and the Ki entry is reported as “Not Active”.
`Cc1ncc([N+](=O)[O-])n1CC(C)O` (stereo unspecified) [SECNIDAZOLE]: the IC50 result was “Not Active”.

Another test deals with Melanocortin receptor 5 (Homo sapiens, UniProt P33032).
Sequence of Melanocortin receptor 5 (P33032 whole entry): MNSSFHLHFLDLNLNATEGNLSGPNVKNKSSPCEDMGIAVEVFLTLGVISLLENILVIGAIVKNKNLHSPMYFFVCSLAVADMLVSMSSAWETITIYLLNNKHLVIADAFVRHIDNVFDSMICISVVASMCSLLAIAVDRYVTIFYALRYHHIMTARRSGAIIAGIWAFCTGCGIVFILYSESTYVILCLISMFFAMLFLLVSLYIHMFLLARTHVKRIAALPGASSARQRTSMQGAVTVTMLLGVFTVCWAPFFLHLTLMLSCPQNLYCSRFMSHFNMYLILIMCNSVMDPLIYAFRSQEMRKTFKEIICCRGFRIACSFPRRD
Assay: not given
Type of test: cell membranes, HEK293, Membrane. The following applies: hek293.
Take `NC(CO)(CO)CO` [TROMETHAMINE]: the IC50 entry is listed as “Not Active”.
Turning to `O=[N+]([O-])c1cc([As](=O)(O)O)ccc1O` [ROXARSONE], the IC50 result is “Not Active” and the Ki entry is reported as “Not Active”.
In the case of `Cc1ncc([N+](=O)[O-])n1CC(C)O` (stereo unspecified) [SECNIDAZOLE], the IC50 result is reported as “Not Active”.

For the next test, the target named is T1, Muscarinic acetylcholine receptor M4 (Homo sapiens, UniProt P08173). Also: in other assays of this panel Not Active means under 50% inhibition at 10 µM.
T1 sequence (P08173 whole entry): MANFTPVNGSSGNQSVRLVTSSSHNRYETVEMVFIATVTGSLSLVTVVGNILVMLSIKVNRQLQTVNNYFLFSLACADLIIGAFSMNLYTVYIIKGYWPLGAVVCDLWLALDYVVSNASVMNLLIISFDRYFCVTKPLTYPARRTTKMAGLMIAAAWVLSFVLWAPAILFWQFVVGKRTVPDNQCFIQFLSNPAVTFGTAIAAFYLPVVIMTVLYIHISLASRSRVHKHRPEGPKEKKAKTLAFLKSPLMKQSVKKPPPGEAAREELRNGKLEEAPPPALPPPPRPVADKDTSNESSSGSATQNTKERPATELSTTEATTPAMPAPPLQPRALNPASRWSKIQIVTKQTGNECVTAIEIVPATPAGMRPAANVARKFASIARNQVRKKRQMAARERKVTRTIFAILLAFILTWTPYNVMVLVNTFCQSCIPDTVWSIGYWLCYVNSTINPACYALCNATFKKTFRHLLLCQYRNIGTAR
Assay: not given
The class given is cell membranes, CHO-K1, Membrane. The following applies: cho-k1.
Consider `NC(CO)(CO)CO` [TROMETHAMINE], for which the IC50 result is “Not Active”.
Regarding `O=[N+]([O-])c1cc([As](=O)(O)O)ccc1O` [ROXARSONE], the IC50 result is recorded as “Not Active” and the Ki result was “Not Active”.
As to `Cc1ncc([N+](=O)[O-])n1CC(C)O` (stereo unspecified) [SECNIDAZOLE], the IC50 result is “Not Active”.

The target in the next test is T2, Muscarinic acetylcholine receptor M5 (Homo sapiens, UniProt P08912). Also: in other assays of this panel Not Active means under 50% inhibition at 10 µM.
T2 sequence (P08912 whole entry): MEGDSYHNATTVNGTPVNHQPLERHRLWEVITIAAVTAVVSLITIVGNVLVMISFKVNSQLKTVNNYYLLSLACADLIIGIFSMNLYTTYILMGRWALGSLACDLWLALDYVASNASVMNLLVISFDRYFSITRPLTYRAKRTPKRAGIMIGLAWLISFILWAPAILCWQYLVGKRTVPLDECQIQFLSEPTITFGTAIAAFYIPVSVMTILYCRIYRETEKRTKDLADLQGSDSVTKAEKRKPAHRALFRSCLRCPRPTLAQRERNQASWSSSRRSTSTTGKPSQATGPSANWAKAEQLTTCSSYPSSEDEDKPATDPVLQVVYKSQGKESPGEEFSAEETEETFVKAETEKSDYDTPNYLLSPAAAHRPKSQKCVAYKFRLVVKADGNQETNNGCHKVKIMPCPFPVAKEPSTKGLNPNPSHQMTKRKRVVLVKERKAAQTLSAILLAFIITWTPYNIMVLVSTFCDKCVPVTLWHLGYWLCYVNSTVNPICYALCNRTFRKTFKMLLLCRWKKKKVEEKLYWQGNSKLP
Assay: not given
Conditions: cho-k1. The class given is cell membranes, CHO-K1, Membrane.
In the case of `NC(CO)(CO)CO` [TROMETHAMINE], the IC50 entry was “Not Active”.
For `O=[N+]([O-])c1cc([As](=O)(O)O)ccc1O` [ROXARSONE], the IC50 entry is on record as “Not Active” and the Ki entry was “Not Active”.
Take `Cc1ncc([N+](=O)[O-])n1CC(C)O` (stereo unspecified) [SECNIDAZOLE]: the IC50 entry was “Not Active”.

A further test concerns the target T3, Caspase-1 (Homo sapiens, UniProt P29466).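 Also: Caspase-1 enzyme inhibition assay with a peptide substrate; in other assays of this panel Not Active means under 50% inhibition at 10 µM.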
T3 sequence (P29466 whole entry): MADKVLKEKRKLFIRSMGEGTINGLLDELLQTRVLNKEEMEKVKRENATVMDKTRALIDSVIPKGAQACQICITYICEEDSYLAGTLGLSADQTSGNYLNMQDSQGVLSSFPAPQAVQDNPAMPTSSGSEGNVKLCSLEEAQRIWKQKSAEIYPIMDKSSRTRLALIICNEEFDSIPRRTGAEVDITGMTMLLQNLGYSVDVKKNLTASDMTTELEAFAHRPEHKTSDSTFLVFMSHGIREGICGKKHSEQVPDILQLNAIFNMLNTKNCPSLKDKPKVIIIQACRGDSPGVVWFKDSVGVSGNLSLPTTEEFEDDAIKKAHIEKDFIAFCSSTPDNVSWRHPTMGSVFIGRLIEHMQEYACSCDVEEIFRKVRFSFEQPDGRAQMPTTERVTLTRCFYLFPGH
Assay: not given
The arrangement: species or system Escherichia coli.
Conditions: not given
For the molecule `NC(CO)(CO)CO` [TROMETHAMINE], the IC50 entry is given as “Not Active”.
For the molecule `O=[N+]([O-])c1cc([As](=O)(O)O)ccc1O` [ROXARSONE], the IC50 entry was “Not Active” and the Ki result is given as “Not Active”.
Take `Cc1ncc([N+](=O)[O-])n1CC(C)O` (stereo unspecified) [SECNIDAZOLE]: the IC50 entry is given as “Not Active”.

In another test the target is T4, Neutrophil elastase (Homo sapiens, UniProt P08246).
T4 sequence (P08246 whole entry): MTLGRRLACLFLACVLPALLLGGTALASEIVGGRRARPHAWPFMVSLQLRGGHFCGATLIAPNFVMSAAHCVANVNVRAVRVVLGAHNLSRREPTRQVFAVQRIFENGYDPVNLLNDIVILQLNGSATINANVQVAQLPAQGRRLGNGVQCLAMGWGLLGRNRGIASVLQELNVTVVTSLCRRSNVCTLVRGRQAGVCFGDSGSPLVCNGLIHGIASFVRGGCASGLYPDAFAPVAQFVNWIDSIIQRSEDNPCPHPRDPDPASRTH
Assay: not given
The class given is tissue-based.
Conditions: not given
As to `NC(CO)(CO)CO` [TROMETHAMINE], the IC50 entry was “Not Active”.
Consider `O=[N+]([O-])c1cc([As](=O)(O)O)ccc1O` [ROXARSONE], for which the IC50 result is on record as “Not Active” and the Ki result was “Not Active”.
With `Cc1ncc([N+](=O)[O-])n1CC(C)O` (stereo unspecified) [SECNIDAZOLE], the IC50 entry is reported as “Not Active”.

In the next test the target is Tyrosine-protein kinase Fyn (Homo sapiens, UniProt P06241). Nature of the test: biochemical. The class given is cell-based, Insect cells. Conditions: insect cells.
Sequence of Tyrosine-protein kinase Fyn (P06241 whole entry): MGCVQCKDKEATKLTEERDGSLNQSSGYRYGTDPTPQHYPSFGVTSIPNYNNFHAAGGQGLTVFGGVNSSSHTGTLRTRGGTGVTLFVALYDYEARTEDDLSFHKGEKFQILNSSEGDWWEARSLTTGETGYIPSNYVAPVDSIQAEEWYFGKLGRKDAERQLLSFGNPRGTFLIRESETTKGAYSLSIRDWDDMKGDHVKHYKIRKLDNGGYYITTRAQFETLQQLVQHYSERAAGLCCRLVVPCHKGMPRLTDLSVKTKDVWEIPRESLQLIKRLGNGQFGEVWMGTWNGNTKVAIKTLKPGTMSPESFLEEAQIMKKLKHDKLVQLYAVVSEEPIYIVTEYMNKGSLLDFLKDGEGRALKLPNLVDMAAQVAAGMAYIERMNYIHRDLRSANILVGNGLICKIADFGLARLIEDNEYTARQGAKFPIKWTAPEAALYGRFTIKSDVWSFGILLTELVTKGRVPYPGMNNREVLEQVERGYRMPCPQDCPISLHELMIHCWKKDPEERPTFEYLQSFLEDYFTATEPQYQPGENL
On to `NC(CO)(CO)CO` [TROMETHAMINE], for which the IC50 result was “Not Active”.
For the molecule `O=[N+]([O-])c1cc([As](=O)(O)O)ccc1O` [ROXARSONE], the IC50 entry is “Not Active” and the Ki entry is “Not Active”.
Turning to `Cc1ncc([N+](=O)[O-])n1CC(C)O` (stereo unspecified) [SECNIDAZOLE], the IC50 result is given as “Not Active”.

A further test deals with Receptor tyrosine-protein kinase erbB-2 (Homo sapiens, UniProt P04626). Nature of the test: biochemical. The class given is cell-based, Insect cells. The following applies: insect cells.
Sequence of Receptor tyrosine-protein kinase erbB-2 (P04626 whole entry): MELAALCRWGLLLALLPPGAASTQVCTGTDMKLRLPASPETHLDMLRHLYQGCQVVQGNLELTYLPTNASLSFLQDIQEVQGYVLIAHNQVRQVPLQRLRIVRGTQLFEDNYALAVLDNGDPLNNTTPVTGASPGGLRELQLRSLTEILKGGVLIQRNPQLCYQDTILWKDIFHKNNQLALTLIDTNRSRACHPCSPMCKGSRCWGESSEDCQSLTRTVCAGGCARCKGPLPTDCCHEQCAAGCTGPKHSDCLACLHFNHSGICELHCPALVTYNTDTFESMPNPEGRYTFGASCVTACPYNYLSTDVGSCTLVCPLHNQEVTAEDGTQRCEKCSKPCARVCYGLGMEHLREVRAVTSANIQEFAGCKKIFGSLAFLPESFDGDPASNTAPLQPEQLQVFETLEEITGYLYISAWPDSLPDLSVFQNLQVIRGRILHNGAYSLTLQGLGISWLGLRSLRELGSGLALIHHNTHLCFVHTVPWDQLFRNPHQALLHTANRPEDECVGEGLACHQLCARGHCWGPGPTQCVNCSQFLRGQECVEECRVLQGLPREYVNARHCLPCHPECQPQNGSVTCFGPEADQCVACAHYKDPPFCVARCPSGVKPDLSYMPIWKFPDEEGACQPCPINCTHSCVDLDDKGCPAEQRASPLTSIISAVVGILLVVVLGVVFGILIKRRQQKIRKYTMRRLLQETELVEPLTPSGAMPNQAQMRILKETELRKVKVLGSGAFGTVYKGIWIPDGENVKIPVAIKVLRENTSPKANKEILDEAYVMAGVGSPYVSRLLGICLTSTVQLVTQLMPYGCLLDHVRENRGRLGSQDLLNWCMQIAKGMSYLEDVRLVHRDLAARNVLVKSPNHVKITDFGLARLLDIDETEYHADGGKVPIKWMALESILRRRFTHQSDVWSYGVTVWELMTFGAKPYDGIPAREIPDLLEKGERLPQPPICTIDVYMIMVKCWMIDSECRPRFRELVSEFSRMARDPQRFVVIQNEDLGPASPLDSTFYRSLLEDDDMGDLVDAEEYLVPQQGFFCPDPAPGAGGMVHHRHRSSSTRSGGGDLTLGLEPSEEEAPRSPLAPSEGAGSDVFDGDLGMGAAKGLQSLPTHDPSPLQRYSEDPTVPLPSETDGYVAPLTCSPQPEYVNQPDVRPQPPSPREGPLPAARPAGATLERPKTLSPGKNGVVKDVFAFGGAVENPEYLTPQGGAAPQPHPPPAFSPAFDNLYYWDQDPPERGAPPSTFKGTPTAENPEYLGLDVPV
On to `NC(CO)(CO)CO` [TROMETHAMINE], for which the IC50 result is reported as “Not Active”.
For `O=[N+]([O-])c1cc([As](=O)(O)O)ccc1O` [ROXARSONE], the IC50 result is “Not Active” and the Ki entry is listed as “Not Active”.
For `Cc1ncc([N+](=O)[O-])n1CC(C)O` (stereo unspecified) [SECNIDAZOLE], the IC50 result is on record as “Not Active”.

In the next test the target is 5-hydroxytryptamine receptor 1B (Rattus norvegicus, UniProt P28564). Also: in other assays of this panel Not Active means under 50% inhibition at 10 µM.
Sequence of 5-hydroxytryptamine receptor 1B (P28564 whole entry): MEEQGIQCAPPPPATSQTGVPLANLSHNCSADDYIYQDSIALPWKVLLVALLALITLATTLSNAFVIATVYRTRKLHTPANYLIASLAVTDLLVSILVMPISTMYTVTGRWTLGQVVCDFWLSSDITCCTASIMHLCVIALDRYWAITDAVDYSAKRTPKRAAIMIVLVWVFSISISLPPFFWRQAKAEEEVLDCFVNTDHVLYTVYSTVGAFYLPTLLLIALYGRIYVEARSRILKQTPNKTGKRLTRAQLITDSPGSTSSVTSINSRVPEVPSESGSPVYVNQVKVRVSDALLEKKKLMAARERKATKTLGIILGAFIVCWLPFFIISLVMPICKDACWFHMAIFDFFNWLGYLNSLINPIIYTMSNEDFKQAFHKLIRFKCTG
Assay: not given
Conditions: not given
Type of test: cell membranes, Wistar, Cerebral cortex, Membrane.
For the molecule `NC(CO)(CO)CO` [TROMETHAMINE], the IC50 result is on record as “Not Active”.
For the molecule `O=[N+]([O-])c1cc([As](=O)(O)O)ccc1O` [ROXARSONE], the IC50 result is given as “Not Active” and the Ki entry is listed as “Not Active”.
With `Cc1ncc([N+](=O)[O-])n1CC(C)O` (stereo unspecified) [SECNIDAZOLE], the IC50 entry is given as “Not Active”.
